Test results from patent US10821115B2, “Compounds that inhibit Mcl-1 protein” (priority 2017, dated 2020).
Like-named read-outs stand apart in the source and are kept apart here.

Key:
[1] = biological target: recombinant human Mcl-1 (residues 171-327) / Bim interaction (Homo sapiens (Human), UniProt Q07820); assay: biochemical; format: binding; settings: read-out: Mcl-1 HTRF IC50
[2] = tested on: human multiple myeloma cell line, OPM-2; assay: Cell viability assay (OPM-2 10 FBS), CellTiter-Glo; format: cell-based
Summary of the method: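 3000 cells/well, RPMI 1640 + 10% FBS; serial compound dilutions, 16 h, 37 °C/5% CO2.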

[3] = TR-FRET, Mcl-1(171-327) / biotin-Bim (51-76)
[4] = Homo sapiens, OPM-2, 16 h, read-out: OPM-2 10% FBS IC50 IP, OPM-2 cells, 10% FBS, 16 h, CellTiter-Glo
[5] = read-out: OPM-2 10% FBS IC50 IP, OPM-2 cells, 10% FBS, 16 h, CellTiter-Glo

Chain of recombinant human Mcl-1 (residues 171-327) / Bim interaction (Q07820 171-327): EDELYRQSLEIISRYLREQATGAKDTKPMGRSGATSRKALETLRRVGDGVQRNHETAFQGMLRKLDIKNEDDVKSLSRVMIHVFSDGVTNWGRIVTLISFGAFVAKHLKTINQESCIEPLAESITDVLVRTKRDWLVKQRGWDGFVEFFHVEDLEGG

Row | Structure (SMILES) | IC50 [1, 3] [nM] | IC50 [2, 4] [nM] | IC50 ([1]; 0.1 nM Mcl-1(171-327), 0.05 nM biotin-Bim (51-76)) [nM] | IC50 ([2]; Homo sapiens, OPM-2, 16 h, read-out: OPM-2 10% FBS IC50 IP, OPM-2 cells, 10% FBS, 16 h incubation) [nM] | IC50 [2, 5] [nM]
1 | Cc1ccc([C@@]2(O)/C=C/C[C@H](C)[C@@H](C)S(=O)(=O)NC(=O)c3ccc4c(c3)N(C[C@@H]3CC[C@H]32)C[C@@]2(CCCc3cc(Cl)ccc32)CO4)cn1 [Example 100407, (1S,3′R,6′R,7′R,8′E,11′S,12′R)-6-chloro-7′-hydroxy-11′,12′-dimethyl-7′-(6-methyl-3-pyridinyl)-3,4-dihydro-2H,15′H-spiro[naphthalene-1,22′-[20]oxa[13]thia[1,14]diazatetracyclo [14.7.2.0~3,6~.0~19,24~]pentacosa[8,16,18,24]tetraen]-15′-one 13′,13′-dioxide] | 0.278 | 516 |  |  | 
2 | CCO[C@@]1(CN2CCC(N(C)C)CC2)/C=C/C[C@H](C)[C@@H](C)S(=O)(=O)NC(=O)c2ccc3c(c2)N(C[C@@H]2CC[C@H]21)C[C@@]1(CCCc2cc(Cl)ccc21)CO3 [Example 110, (1S,3′R,6′R,7′S,8′E,11′S,12′R)-6-chloro-7′-((4-(dimethylamino)-1-piperidinyl)methyl)-7′-ethoxy-11′,12′-dimethyl-3,4-dihydro-2H,15′H-spiro[naphthalene-1,22′-[20]oxa[13]thia[1,14]diazatetracyclo [14.7.2.0~3,6~.0~19,24~]pentacosa[8,16,18,24]tetraen]-15′-one 13′,13′-dioxide] |  |  | 0.505 | 1720 | 
3 | C[C@@H]1[C@@H](C)C/C=C/[C@@](O)(CCCO)[C@@H]2CC[C@H]2CN2C[C@@]3(CCCc4cc(Cl)ccc43)COc3ccc(cc32)C(=O)NS1(=O)=O [Example 100148, (1S,3′R,6′R,7′S,8′E,11′S,12′R)-6-chloro-7′-hydroxy-7′-(3-hydroxypropyl)-11′,12′-dimethyl-3,4-dihydro-2H,15′H-spiro[naphthalene-1,22′-[20]oxa[13]thia[1,14]diazatetracyclo [14.7.2.0~3,6~.0~19,24~]pentacosa[8,16,18,24]tetraen]-15′-one 13′,13′-dioxide] | 0.113 |  |  |  | 239
4 | CC[C@]1(OCCN2CCOCC2)/C=C/C[C@H](C)[C@@H](C)S(=O)(=O)NC(=O)c2ccc3c(c2)N(C[C@@H]2CC[C@H]21)C[C@@]1(CCCc2cc(Cl)ccc21)CO3 (single isomer, unassigned) [Example 100481] | 0.094 | 152 |  |  | 
5 | C[C@@H]1[C@@H](C)CC2C=CC[C@@](O)(C2)[C@@H]2CC[C@H]2CN2C[C@@]3(CCCc4cc(Cl)ccc43)COc3ccc(cc32)C(=O)NS1(=O)=O (stereo in doubt) [Example 100058, (1S,3′R,6′R,7′R,11′S,13′S,14′R)-6-chloro-7′-hydroxy-13′,14′-dimethyl-3,4-dihydro-2H,17′H-spiro[naphthalene-1,24′-[22]oxa[15]thia[1,16]diazapentacyclo [16.7.2.1~7,11~.0~3,6~.0~21,26~]octacosa [9,18,20,26]tetraen]-17′-one 15′,15′-dioxide] | 1.76 | 3360 |  |  | 
6 | C[C@@H]1[C@@H](C)C/C=C/[C@@](O)(C#CCO)[C@@H]2CC[C@H]2CN2C[C@@]3(CCCc4cc(Cl)ccc43)COc3ccc(cc32)C(=O)NS1(=O)=O [Example 100395, (1S,3′R,6′R,7′S,8′E,11′S,12′R)-6-chloro-7′-hydroxy-7′-(3-hydroxy-1-propyn-1-yl)-11′,12′-dimethyl-3,4-dihydro-2H,15′H-spiro[naphthalene-1,22′-[20]oxa[13]thia[1,14]diazatetracyclo [14.7.2.0~3,6~.0~19,24~]pentacosa[8,16,18,24]tetraen]-15′-one 13′,13′-dioxide] | 0.056 |  |  |  | 40
